Nine molecules from patent publication US9023855B2, “Compounds” (Chiesi Farmaceutici S.p.A., priority 2011, dated 2015) can be followed below.

A value given as a limit tells only on which side of the number the result lay.

This assay deals with T1, human neutrophil elastase (HNE) (Homo sapiens, UniProt P08246).
T1 construct: purchased Sigma E8140
T1 sequence (P08246 30-267): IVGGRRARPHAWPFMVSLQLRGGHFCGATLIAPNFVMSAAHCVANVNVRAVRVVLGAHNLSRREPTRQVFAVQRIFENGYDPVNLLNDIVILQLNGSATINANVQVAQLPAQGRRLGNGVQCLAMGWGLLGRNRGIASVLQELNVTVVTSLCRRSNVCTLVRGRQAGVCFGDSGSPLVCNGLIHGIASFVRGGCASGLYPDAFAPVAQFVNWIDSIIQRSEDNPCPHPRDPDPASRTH
Briefly: HNE enzyme assay (fluorogenic peptide substrate MeOSuc-Ala-Ala-Pro-Val-AMC). It counts as biochemical. To be noted: human leukocyte elastase, substrate 100 μM, 25° C., 30 minutes, at least two separate experiments; read-out: HNE inhibition (IC50 values). The protocol: Compounds of this invention were tested for potency in a human neutrophil elastase (HNE) enzyme activity assay.
Assays were performed in 96-well plates in a total assay volume of 100 μl. The final concentration of elastase enzyme (human leukocyte elastase, Sigma E8140) was 0.0036 units/well […]. The peptide substrate (MeOSuc-Ala-Ala-Pro-Val-AMC, Calbiochem #324740) was used at a final concentration of 100 μM. The final concentration of DMSO was 1% in the assay buffer (0.05M Tris.HCl, 0.1M NaCl, 0.1M CaCl2, 0.0005% brij-35, pH 7.5). The enzymatic reaction was started by addition of the enzyme and incubated at 25° C. for 30 minutes. After incubation, the reaction was stopped by addition of soybean trypsin inhibitor (Sigma T9003) at a final concentration of 50 μg/well. Fluorescence was measured using a Molecular Devices fluorescence plate reader using 380 nm excitation and 460 nm emission wavelengths.
A dose response to each compound was performed, and the effect of the compound in each experiment was expressed as a percentage inhibition of the control enzyme fluorescence. Dose response curves were plotted and compound potency (IC50) was determined. Compounds were tested in at least two separate experiments.
In the case of `COC(=O)C1=C(C)N(c2cccc(C(F)(F)F)c2)c2nn(CCCS(=O)(=O)CCC[N+](C)(C)C)c(=O)n2[C@@H]1c1ccc(C#N)cc1` [Example 38, (R)-(3-{3-[5-(4-Cyano-phenyl)-6-methoxycarbonyl-7-methyl-3-oxo-8-(3-trifluoromethyl-phenyl)-5,8-dihydro-[1,2,4]triazolo[4,3-a]pyrimidin-2-yl]-propane-1-sulfonyl}-propyl)-trimethylammonium chloride], the IC50 is less than 0.02 µM. Consider `COC(=O)C1=C(C)N(c2cccc(C(F)(F)F)c2)c2nn(CC(=O)N(C)CCCCN(C)C)c(=O)n2C1c1ccc(C#N)cc1` (stereo not drawn) [Example 29, 5-(4-Cyano-phenyl)-2-{[(4-dimethylamino-butyl)-methyl-carbamoyl]-methyl}-7-methyl-3-oxo-8-(3-trifluoromethyl-phenyl)-2,3,5,8-tetrahydro-[1,2,4]triazolo[4,3-a]pyrimidine-6-carboxylic acid methyl ester], for which the IC50 was less than 0.02 µM. To `COC(=O)C1=C(C)N(c2cccc(C(F)(F)F)c2)c2nn(CCCS(=O)(=O)CCC[N+](C)(C)C)c(=O)n2C1c1ccc(C#N)cc1` (stereo not drawn) [Example 37, (3-{3-[5-(4-Cyano-phenyl)-6-methoxycarbonyl-7-methyl-3-oxo-8-(3-trifluoromethyl-phenyl)-5,8-dihydro-[1,2,4]triazolo[4,3-a]pyrimidin-2-yl]-propane-1-sulfonyl}-propyl)-trimethylammonium toluene-4-sulfonate] belongs less than 0.02 µM; to `COC(=O)C1=C(C)N(c2cccc(C(F)(F)F)c2)c2nn(CC(=O)N(C)CCCCCN(C)C)c(=O)n2[C@@H]1c1ccc(C#N)cc1` [Example 33, (R)-5-(4-Cyano-phenyl)-2-{[(5-dimethylamino-pentyl)-methyl-carbamoyl]-methyl}-7-methyl-3-oxo-8-(3-trifluoromethyl-phenyl)-2,3,5,8-tetrahydro-[1,2,4]triazolo[4,3-a]pyrimidine-6-carboxylic acid methyl ester], less than 0.02 µM; to `CC1=C(C#N)C(c2ccc(C#N)cc2)n2c(n[nH]c2=O)N1c1cccc(C(F)(F)F)c1` (stereo not drawn) [Example 14, 5-(4-Cyano-phenyl)-7-methyl-3-oxo-8-(3-trifluoromethyl-phenyl)-2,3,5,8-tetrahydro-[1,2,4]triazolo[4,3-a]pyrimidine-6-carbonitrile], less than 0.02 µM. To `COC(=O)C1=C(C)N(c2cccc(C(F)(F)F)c2)c2nn(CC(=O)N(C)CCCCC[N+](C)(C)C)c(=O)n2C1c1ccc(C#N)cc1` (stereo not drawn) [Example 32, [5-({2-[5-(4-Cyano-phenyl)-6-methoxycarbonyl-7-methyl-3-oxo-8-(3-trifluoromethyl-phenyl)-5,8-dihydro-[1,2,4]triazolo[4,3-a]pyrimidin-2-yl]-acetyl}-methyl-amino)pentyl]-trimethyl-ammonium; bromide] belongs less than 0.02 µM; to `COC(=O)C1=C(C)N(c2cccc(C(F)(F)F)c2)c2nn(CCCN(C)C(C)=O)c(=O)n2C1c1ccc(C#N)cc1` (stereo not drawn) [Example 35, 2-[3-(Acetyl-methyl-amino)-propyl]-5-(4-cyano-phenyl)-7-methyl-3-oxo-8-(3-trifluoromethylphenyl)-2,3,5,8-tetrahydro-[1,2,4]triazolo[4,3-a]pyrimidine-6-carboxylic acidmethyl ester], less than 0.02 µM. To `COC(=O)C1=C(C)N(c2cccc(C(F)(F)F)c2)c2nn(Cc3ccc(S(C)(=O)=O)cn3)c(=O)n2C1c1ccc(C#N)cc1` (stereo not drawn) [Example 23, 5-(4-Cyano-phenyl)-2-(5-methanesulfonyl-pyridin-2-ylmethyl)-7-methyl-3-oxo-8-(3-trifluoromethyl-phenyl)-2,3,5,8-tetrahydro-[1,2,4]triazolo[4,3-a]pyrimidine-6-carboxylic acid methyl ester] belongs less than 0.02 µM; to `COC(=O)C1=C(C)N(c2cccc(C(F)(F)F)c2)c2nn(Cc3ccccc3)c(=O)n2C1c1ccc(C#N)cc1` (stereo not drawn) [Example 4, 2-Benzyl-5-(4-cyanophenyl)-7-methyl-3-oxo-8-(3-trifluoromethyl-phenyl)-2,3,5,8-tetrahydro-[1,2,4]triazolo[4,3-a]pyrimidine-6-carboxylic acid methyl ester], 0.02 to 0.1 µM.
